Where “and” joins values, the source holds several entries; their conditions need not be identical. Identical values can stand only once.
Test system: 415267-285-R-J2-PDC complex spheroid viability
Test: Anticancer human tumor 415267-285-R-J2-PDC patient-derived breast carcinoma cell line growth inhibition [POLQ]
Settings: for viability, T/C: stronger effect = lower value
Description: Multicellular complex tumor spheroid response to Polymerase (POL) inhibitors (novobiocin, ART-558, RP6685) in combination with a variety of drugs and investigational agents in selected tumor cell lines
The POL inhibitors (novobiocin, ART-558, and RP6685) were evaluated both individually and in combination with standard of care and investigational anticancer small molecules within a complex spheroid model of solid tumors. . Complex spheroids include a stromal component modeled by human endothelial cells (HUVEC) and fibroblasts modeled by human mesenchymal stem cells (MSCs). The concentration ranges selected for each drug and investigational agent were based upon clinically achievable concentrations if the clinical Cmax of the agent was known.
Compounds. The drugs and investigational agents: novobiocin (NSC847541), ART-558 (NSC835418), RP-6685 (NSC848927), peposertib (NSC802822), ceralasertib (NSC780249), elimusertib (NSC800525), camonsertib (NSC841442), AZD-1390 (NSC803789), olaparib (NSC753686), talazoparib (NSC767125), rucaparib (NSC756644), sotorasib (NSC818433), MRTX-1133 (NSC836407), SN-38 (NSC673596), topotecan (NSC609699), epotoside (NSC141540), doxorubicin (NSC123127), gemcitabine (NSC613327), 5-fluorouracil (NSC19893), paclitaxel (NSC125973), vemurafenib (NSC761431), MSA-2 (NSC828583), SN-011 (NSC837082), adavosertib (NSC754352), prexasertib (NSC758257), carboplatin (NSC241240) and oxaliplatin (NSC266046), were obtained from the National Cancer Institute (NCI) Developmental Therapeutics Program Chemical Repository (21). The FDA-approved anticancer drug set is available from the Developmental Therapeutics Program at https://dtp.cancer.gov/organization/dscb/obtaining/. […] The stock solutions were prepared in dimethyl sulfoxide (DMSO, Sigma-Aldrich, St. Louis, MO, cat. D2650), except for the platinum compounds which were prepared in saline (Quality Biological, Gaithersburg, MD, cat. 114-055-101), at 800-fold the tested concentration and stored at -70 degrees C prior to their use. All drugs and investigational agents were tested over a range starting from a high concentration at or near the clinical Cmax and decreasing in half-log increments. If the clinical Cmax for an agent had not been determined, the highest concentration tested was 10 microM, except for SN-38, which was tested at a high concentration of 1 microM.
Cell Culture. All cells were maintained in an incubator at 37 degrees C and 5% CO2 with 95% humidity. The PDC lines were cultured according to standard operating procedures established by the NCI PDMR (https://pdmr.cancer.gov). Table 3 of the manuscript, lists the cell lines along with the number of the three cell types plated to form the mct-spheroids and media for tumor cell growth. After thawing, all PDC lines, except 997537-175-T-J1-PDC and 415267-285-R-J2-PDC, were cultured in Matrigel-coated flasks prepared with a working solution of 1X Ham's F-12 nutrient mix, without supplementation (Thermo Fisher Scientific, cat. 11765054), 100 U/mL penicillin-streptomycin (Thermo Fisher Scientific, cat. 15140122), and 2.5% Matrigel (Corning Inc., Corning, NY, cat. 354248) for the first three passages. The two PDC lines 997537-175-T-J1-PDC and 415267-285-R-J2-PDC were cultured on uncoated flasks. The 857933-349-R-J2-PDC line was cultured in 6C/Colon 1B media containing advanced DMEM/F-12 (Thermo Fisher Scientific, cat. 12634028), 10 mM HEPES (Thermo Fisher Scientific, cat. 15630080), 1X GlutaMAX supplement (Thermo Fisher Scientific, cat. 35050061), 0.1 mg/mL primocin (InvivoGen, San Diego, CA, cat. ant-pm-2), 10% defined fetal bovine serum, heat inactivated (HyClone Laboratories Inc., Logan, UT, cat. SH30070.03HI), 50% L-WRN conditioned media (ATCC, cat. CRL-3276), 1.25 mM N-Acetyl-L-cysteine (Sigma-Aldrich, cat. A9165), 10 mM nicotinamide (Sigma-Aldrich, cat. N0636), 1X B-27 supplement (Thermo Fisher Scientific, cat. 17504044), 1X N-2 supplement (Thermo Fisher Scientific, cat. […]
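Also: spheroids exposed to compounds for one week before readout.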
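For viability, T/C in this document: luminescence used as stand-in measure of viable cells; 100% = DMSO vehicle control viability.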

IC50 (compound alone, run of 01/08/2024) | IC50 (compound alone, run of 01/19/2024) | SMILES | viability, T/C (compound 0.0316 µM) | viability, T/C (compound 0.1 µM) | viability, T/C (compound 0.316 µM) | viability, T/C (compound 1 µM) | viability, T/C (compound 3.16 µM) | viability, T/C (compound 10 µM) | IC50 (curve of compound) | viability, T/C (compound 0.00949 µM) | viability, T/C (compound 0.03 µM) | viability, T/C (compound 0.0949 µM) | viability, T/C (compound 0.3 µM) | viability, T/C (compound 0.949 µM) | viability, T/C (compound 3 µM) | viability, T/C (compound 0.000316 µM) | viability, T/C (compound 0.001 µM) | viability, T/C (compound 0.00316 µM) | viability, T/C (compound 0.01 µM)
– | – | O=C(c1cc(Cc2n[nH]c(=O)c3ccccc23)ccc1F)N1CCN(C(=O)C2CC2)CC1 | 92.7% and 95.5% and 108% | 109% and 91.4% and 105% | 86.8% and 95.3% and 97.5% | 87.8% and 94.8% and 102% | 95.3% and 95.4% and 109% | 76.9% and 90.6% and 102% | > 10 µM | – | – | – | – | – | – | – | – | – | –
– | – | CC(=O)O[C@H]1C(=O)[C@@]2(C)[C@H]([C@H](OC(=O)c3ccccc3)[C@]3(O)C[C@H](OC(=O)[C@H](O)[C@@H](NC(=O)c4ccccc4)c4ccccc4)C(C)=C1C3(C)C)[C@]1(OC(C)=O)CO[C@@H]1C[C@@H]2O | – | – | – | – | – | – | < 0.00949 µM | 16.9% and 25% and 13% | 9.1% and 9.98% and 8.84% | 8.45% and 7.67% and 7.24% | 8.09% and 8.99% and 7.37% | 6.85% and 7.15% and 7.58% | 7.67% and 7.6% and 8.18% | – | – | – | –
> 10 µM | > 10 µM | Cc1cccc(N(C)C(=O)C2C(O)CCN2c2nc(C)cc(C(F)(F)F)c2C#N)c1 (configuration not stated) | 99.1% [middle of 13 runs] | 100% [middle of 13 runs] | 102% [middle of 13 runs] | 103% [middle of 13 runs] | 104% [middle of 13 runs] | 98.5% [middle of 13 runs] | – | – | – | – | – | – | – | – | – | – | –
– | – | CC(C)n1c(=O)n(C)c2cnc3cc(F)c(-c4ccc(OCCCN5CCCCC5)nc4)cc3c21 | 92.3% and 106% and 90.9% | 97% and 105% and 101% | 102% and 115% and 91.9% | 112% and 121% and 108% | 110% and 108% and 96.3% | 83.6% and 103% and 97.1% | > 10 µM | – | – | – | – | – | – | – | – | – | –
– | – | CCc1cc2c(N3CCc4c(cc(Cn5ccnc5)cc4-c4cn(C)nc4C(F)(F)F)C3=O)ccnc2c(OC)n1 | 82.8% and 92.9% and 84.3% | 82.9% and 92.8% and 96.7% | 85.8% and 89.2% and 90.2% | 83.7% and 94.3% and 90% | 82.2% and 82.6% and 86.5% | 75.7% and 84.4% and 75.4% | > 10 µM | – | – | – | – | – | – | – | – | – | –
– | – | Cn1ncnc1[C@H]1c2n[nH]c(=O)c3cc(F)cc(c23)N[C@@H]1c1ccc(F)cc1 | 108% and 89.2% and 99% | 93.3% and 102% and 100% | – | – | – | – | > 0.1 µM | – | – | – | – | – | – | 88.1% and 97.7% and 104% | 98.2% and 104% and 91.7% | 90.7% and 92.5% and 103% | 101% and 98.7% and 94.5%
– | – | C#Cc1c(F)ccc2cc(O)cc(-c3ncc4c(N5CC6CCC(C5)N6)nc(OCC56CCCN5CC(F)C6)nc4c3F)c12 (configuration not stated) | 106% and 95.4% and 97.2% | 103% and 112% and 92.5% | 102% and 106% and 94.2% | 107% and 109% and 97.7% | 106% and 91.5% and 101% | 101% and 98% and 104% | > 10 µM | – | – | – | – | – | – | – | – | – | –
– | – | O=c1[nH]cc(F)c(=O)[nH]1 | 87.3% and 92.5% and 87% | 74.7% and 89% and 73.5% | 33.6% and 48.5% and 30.5% | 29.1% and 24.6% and 27.7% | 24.6% and 24.4% and 26% | 31.8% and 40.5% and 34.1% | 0.2 µM and 0.302 µM and 0.187 µM | – | – | – | – | – | – | – | – | – | –
– | – | CC1COCCN1c1cc(C2(S(C)(=N)=O)CC2)nc(-c2ccnc3[nH]ccc23)n1 (configuration not stated) | 96.2% and 107% and 97.5% | 93.1% and 103% and 94.9% | 69.9% and 86.8% and 66.4% | 12.1% and 15.8% and 13% | 7.35% and 7.07% and 7.38% | 5.4% and 3.22% and 5.26% | 0.47 µM and 0.575 µM and 0.45 µM | – | – | – | – | – | – | – | – | – | –
– | – | CNCc1ccc(-c2[nH]c3cc(F)cc4c3c2CCNC4=O)cc1 | 107% and 95.9% and 101% | 109% and 115% and 101% | 96.2% and 94.8% and 102% | 94.9% and 105% and 102% | 108% and 96% and 106% | 103% and 98.2% and 107% | > 10 µM | – | – | – | – | – | – | – | – | – | –
– | – | Nc1ccn(C2OC(CO)C(O)C2(F)F)c(=O)n1 (configuration not stated) | – | 5.29% and 5.02% and 7.12% | 6.27% and 4.87% and 6.14% | 5.28% and 7.75% and 7.66% | 5.29% and 4.37% and 5.37% | 6.07% and 4.68% and 5.14% | < 0.0316 µM | – | – | – | – | – | – | – | – | – | –

— PubChem BioAssay AID1963847 (Molecular Pharmacology Branch, DTP, NCI, 2024)
